Entries after “also recorded” stand apart in the source; their conditions may differ.
B1: IGFBPL-1: insulin-like growth factor binding protein-like 1 protein; mouse recombinant IGFBPL-1 used in tests (protein)
chain: LGLRDAGRRHPECSPCQQDRCPAPSPCPAPWISARDECGCCARCLGAEGASCGGPVGSRCGPGLVCASRASGTAPEGTGLCVCAQRGAVCGSDGRSYSSICALRLRARHAPRAHHGHLHKARDGPCEFAPVVLMPPRDIHNVTGTQVFLSCEVKAVPTPVITWKKVKHSPEGTEGLEELPGDHVNIAVQVRGGPSDHETTSWILINPLRKEDEGVYHCHAANAIGEAQSHGTVTVLDLNRYKSLYSSVPGDLL

Key:
[1] = tested on: cultured RGCs derived from P10 mice; assay: P10 RGC culture: axon length and survival; assay type: cell-based, mouse; details: for axon length / neurite outgrowth: treated 3 days
Method: Cells were treated with control, IGF-I, IGFBPL1 or both for 3 days and were immunostained with βIII-tubulin to reveal axons.

Akt = assay: P10 retina incubation, western blot of phosphorylated Akt; assay type: cell-based, mouse; details: P10 retinas incubated 30 min or 6 hours at 37° C.
Method: (§1) P10 retinas were dissected and incubated with IGF-I, IGFBPL1 and IGF-I+IGFBPL1 for 30 min or 6 hours at 37° C. Retina lysates were prepared for western blotting, using antibodies against IGF-1-mediated downstream signals, mTOR and Akt.

[2] = tested on: Retinal ganglion cells (RGCs) isolated from P0 mice; assay: P0 RGC culture: neurite outgrowth and survival; assay type: cell-based, mouse; details: for RGC neurite outgrowth / axonal extension: P0 RGC cultures, 3 days, beta-III-tubulin/Tuj1 immunostaining; for RGC cell survival: P0 RGCs; for effect on IGFBPL-1 induced neurite/axon growth: P0 RGC cultures treated with IGFBPL-1 plus inhibitor or neutralizing antibody
Source text: The experiments described herein were aimed to elucidate the functional role and mechanisms of IGFBPL-1 on RGC survival and axon extension in mice. The expression pattern of IGFBPL-1 in the developing retina was examined in retinas at different developmental stage, ranging from embryonic day 16 through adult, using immunohistochemistry, western blot and quantitative RT-PCR. Retinal ganglion cells were purified using magnetic beads conjugated with Thy1.2 antibody from new born mouse pups at postnatal day 0 (P0), and cultured for up to five days in the presence or absence of IGFBPL-1 and/or IGF-I proteins. RGC survival and axonal growth were evaluated after three days in culture following LIVE/DEAD® and β-III-tubulin immunostaining. Lentiviral shRNAs were used to knockdown the expression of IGFBPL-1 and/or IGF-I in culture. The functional role of IGFBPL-1 in RGC development was further evaluated in IGFBPL-1 knockout (KO) mouse. RGC morphology and number were recorded using retinal vertical sections or whole-mount preparation. The number of axons in the optic nerve head was counted under electron microscopy. Data collected from the IGFBPL-1 KO mice were compared with that obtained from age-matched wildtype C57BL/6 littermates.
RGC neurite outgrowth in the absence (FIG. 3A) and presence (FIG. 3B) of IGFBPL-1 promotes in RGC cell culture. Retinal ganglion cells (RGCs) isolated from P0 mice were cultured in the absence (control) and presence of IGFBPL-1 (IGFBPL-1) for 3 days and were immunolabeled with primary antibody against a RGC specific marker Tuj1 (red). Note that RGCs extend long neurite in IGFBPL-1-treated cultures as compared to control culture group.

mTOR = assay: P10 retina incubation, western blot of phosphorylated mTOR; assay type: cell-based, mouse; details: P10 retinas incubated 30 min or 6 hours at 37° C.
Method: as §1

IGF-1 = IGF-1 (Mus musculus, UniProt P05017); assay: Co-immunoprecipitation of IGFBPL-1 and IGF-1 (western blot); assay type: binding; details: mouse recombinant proteins and retina lysates
Source text: FIGS. 5(I) A and B and FIGS. 5 (II) A and B are western blots showing binding of IGFBP-1 with IGF-I using mouse recombinant IGFBPL-1 and IGF-1 (FIG. 5(I)) and retina lysates (FIG. 5(II)).

hippocampal neurons = assay: Hippocampal neuronal cultures: neurite outgrowth; assay type: cell-based; details: beta III tubulin staining
Source text: FIG. 9B are histograms showing quantification of neurite outgrowth in control; and neurons exposed to IGFBPL-1; IGF-1; IGFBPL-1+IGF-1; IGFBPL-1+H1356; IGFBPL-1+Neut. Ab; IGFBPL-1+IGFI-1+Neut. Ab.

[3] = tested on: RGC axons after optic nerve crush; assay: Optic nerve regeneration in vivo after optic nerve crush; details: intravitreous delivery, optic nerve crush in mice
Source text: IGF-1 ([…]). IGFBPL-1 (n=7). IGF1+IGFBPL1 (n=6).

IGF-1, sequence (P05017 1-118 limits assumed): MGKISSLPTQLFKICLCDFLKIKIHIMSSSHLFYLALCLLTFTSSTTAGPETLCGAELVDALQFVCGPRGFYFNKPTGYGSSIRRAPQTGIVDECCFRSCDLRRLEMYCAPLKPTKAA

| Molecule | RGC survival [1] | axon length / neurite outgrowth [1] | phosphorylation of Akt (Akt) | RGC neurite outgrowth / axonal extension [2] | RGC neurite outgrowth / axonal extension ([2]; listed as IGF-I) | RGC cell survival [2] | phosphorylation of mTOR (mTOR) | effect on IGFBPL-1 induced neurite/axon growth [2] | effect on IGFBPL-1 induced neurite/axon growth ([2]; listed as inhibitor of IGF-I and IGFBP binding) | binding / interaction with IGF-1 (IGF-1) | neurite growth in hippocampal neuronal cultures (hippocampal neurons) | RGC neurite outgrowth / axonal extension ([2]; listed as IGFBPL1) | regeneration of RGC axons [3] |
| --- | --- | --- | --- | --- | --- | --- | --- | --- | --- | --- | --- | --- | --- |
| IGF-1: Insulin Growth Factor 1 protein | affect the survival | does not promote neurite outgrowth | increased level of phosphorylated mTOR and Akt | robust neurite outgrowth | promotes both neurite outgrowth and cell survival | promotes both neurite outgrowth and cell survival | increased level of phosphorylated mTOR and Akt | – | – | – | – | – | – |
| O=C(O)c1cc2cc(O)c(O)cc2c(C(=O)c2ccc(O)c(O)c2)n1 [NBI-31772, reference compound] | – | – | – | – | – | – | – | abolishes the neurite growth effect of IGFBPL-1 | abolishes the growth promoting activity of IGFBPL1 | – | – | – | – |
| B1 | affect the survival | does not promote neurite outgrowth | – | significantly promoted axonal extension; also recorded: promotes RGC neurite outgrowth; also recorded: stimulates neurite outgrowth; also recorded: robust neurite outgrowth | – | promotes both neurite outgrowth and cell survival | prolongs the phosphorylation | – | – | directly interacts with IGF-1 | induced neurite growth | promotes both neurite outgrowth and cell survival | significantly promotes the regeneration of RGC axons |
